Measurements as given in patent US7875606B2, “Izoxazoline derivative and herbicide” (Ihara Chemical Industry Co., Ltd., priority 2001, dated 2011).

What was measured:
Type in all cases: in vivo
[1] = tested on: Echinochloa oryzicola Vasing.; test: Herbicidal effect by paddy field pre-emergence treatment; settings: wettable powder, active ingredient 1000 g/ha, examined at the 21st day from the treatment
Experimental: (§1) Test For Herbicidal Effect By Paddy Field Pre-Emergence Treatment
(§2) A paddy field soil was filled in a plastic pot of 100 cm^2 and subjected to puddling. Then, seeds of Echinochloa oryzicola Vasing. and Monochoria vaginalis (Murm. f.) Presl var. plantaginea (Roxb.) Solms-Laub. were sowed and water was filled in a depth of 3 cm. Next day, wettable powders produced in accordance with the Formulation 1 were diluted with water and dropped on the water surface. The application amount of each wettable powder was 1,000 g per 1 hectare in terms of the active ingredient. Then, breeding was made in a greenhouse, and the herbicidal effect of each wettable powder was examined at the 21st day from the treatment in accordance with the standard shown in Table 61.

[2] = tested on: Monochoria vaginalis (Murm. f.) Presl var. plantaginea (Roxb.) Solms-Laub.; test: as above; settings: wettable powder, active ingredient 1000 g/ha, examined at the 21st day from the treatment
Experimental: as §1, §2

[3] = tested on: Echinochloa crus-galli (L.) Beauv. var. crus-galli; test: Herbicidal effect by upland field pre-emergence treatment; settings: sprayed on the soil surface, active ingredient 1000 g/ha, examined at the 21st day from the treatment
Experimental: (§3) Test For Herbicidal Effect By Upland Field Pre-Emergence Treatment An upland field soil was filled in a plastic pot of 80 cm^2. Seeds of Echinochloa crus-galli (L.) Beauv. var. crus-galli and Setaria viridis (L.) Beauv. were sowed, followed by covering with the same soil. Wettable powders produced in accordance with the Formulation 1 were diluted with water and sprayed uniformly on the soil surface using a small sprayer, in an amount of 1,000 liters per 1 hectare so that the amount of each active ingredient became 1,000 g per 1 hectare. Then, breeding was made in a greenhouse, and the herbicidal effect of each wettable powder was examined at the 21st day from the treatment in accordance with the standard shown in Table 61.

[4] = tested on: Setaria viridis (L.) Beauv.; test: as above; settings: sprayed on the soil surface, active ingredient 1000 g/ha, examined at the 21st day from the treatment
Experimental: as §3

Cn1nc(C(F)(F)F)c(CS(=O)(=O)C2=NOC(C)(CCl)C2)c1Cl (stereo not shown) [Compound 2, 3-(5-chloro-1-methyl-3-trifluoromethyl-1H-pyrazol-4-ylmethylsulfonyl)-5-chloromethyl-5-methyl-2-isoxazoline]
5: Herbicidal effect index, Echinochloa oryzicola Vasing [1] | Herbicidal effect index, Monochoria vaginalis (Burm. f) Presl Var. plantaginea (Roxb.) Solms-Laub. [2] | Herbicidal effect index, Echinochloa crus-galli (L.) Beauv. Var. crus-galli [3] | Herbicidal effect index, Setaria viridis (L.) Beauv. [4]
